Experimental data published in US20080261973A1, “Sulphonamidoaniline Derivatives Being Janus Kinase Inhibitors” (Novartis AG, priority 2005, published 2008).

melting point | SMILES
200 to 204 °C | CS(=O)(=O)Nc1cccc(Nc2nc(NC3CN4CCC3CC4)c3nc[nH]c3n2)c1 (centres unmarked)
142 to 146 °C | CS(=O)(=O)Nc1cccc(Nc2nc(NC3CCC3)c3nc[nH]c3n2)c1 [Example 1, N-[3-(6-Cyclobutylamino-9H-purin-2-ylamino)-phenyl]-methanesulfonamide]
161 to 165 °C | CC(C)Nc1nc(Nc2cccc(NS(C)(=O)=O)c2)nc2[nH]cnc12 [Example 2, N-[3-(6-Isopropylamino-9H-purin-2-ylamino)-phenyl]-methanesulfonamide]
192 to 197 °C | CS(=O)(=O)Nc1cccc(Nc2nc(N3CCC[C@H]3CO)c3nc[nH]c3n2)c1 [Example 3, N-{3-[6-((S)-2-Hydroxymethyl-pyrrolidin-1-yl)-9H-purin-2-ylamino]-phenyl}-methanesulfonamide]
205 to 210 °C | CS(=O)(=O)Nc1cccc(Nc2nc(NCCc3c[nH]cn3)c3nc[nH]c3n2)c1 [Example 4, N-(3-{6-[2-(1H-Imidazol-4-yl)-ethylamino]-9H-purin-2-ylamino]-phenyl}-methanesulfonamide]
226 to 230 °C | CC(C)N(CCNc1nc(Nc2cccc(NS(C)(=O)=O)c2)nc2[nH]cnc12)C(C)C [Example 5, N-(3-{6-[2-Diisopropylamino-ethylamino]-9H-purin-2-ylamino]-phenyl}-methanesulfonamide]
191 to 195 °C | CN(C)CCNc1nc(Nc2cccc(NS(C)(=O)=O)c2)nc2[nH]cnc12 [Example 6, N-(3-{6-[2-Dimethylamino-ethylamino]-9H-purin-2-ylamino]-phenyl}-methanesulfonamide]
227 to 230 °C | CS(=O)(=O)Nc1cccc(Nc2nc(N3CCN(c4ccncc4)CC3)c3nc[nH]c3n2)c1 [Example 7, N-{3-[6-(4-Pyridin-4-yl-piperazin-1-yl)-9H-purin-2-ylamino]-phenyl}-methanesulfonamide]
218 to 222 °C | CN(CCC#N)c1nc(Nc2cccc(NS(C)(=O)=O)c2)nc2[nH]cnc12 [Example 8, N-(3-{6-[(2-Cyano-ethyl)-methyl-amino]-9H-purin-2-ylamino}-phenyl)-methanesulfonamide]
199 to 202 °C | CS(=O)(=O)Nc1cccc(Nc2nc(NCCc3ccccn3)c3nc[nH]c3n2)c1 [Example 10, N-{3-[6-(2-Pyridin-2-yl-ethylamino)-9H-purin-2-ylamino]-phenyl}-methanesulfonamide]
164 to 168 °C | CS(=O)(=O)Nc1cccc(Nc2nc(NCC(O)CO)c3nc[nH]c3n2)c1 (centres unmarked) [Example 11, N-{3-[6-(2,3-Dihydroxy-propylamino)-9H-purin-2-ylamino]-phenyl}-methanesulfonamide]
243 to 248 °C | CS(=O)(=O)Nc1cccc(Nc2nc(N3CCC(O)C3)c3nc[nH]c3n2)c1 (centres unmarked) [Example 12, N-{3-[6-(3-Hydroxy-pyrrolidin-1-yl)-9H-purin-2-ylamino]-phenyl}-methanesulfonamide]
298 to 301 °C | Cc1cn(-c2nc(Nc3cccc(NS(C)(=O)=O)c3)nc3[nH]cnc23)cn1 [Example 13, N-{3-[6-(4-Methyl-imidazol-1-yl)-9H-purin-2-ylamino]-phenyl}-methanesulfonamide]
164 to 168 °C | CS(=O)(=O)Nc1cccc(Nc2nc(N3CCCC3)c3nc[nH]c3n2)c1 [Example 14, N-[3-(6-Pyrrolidin-1-yl-9H-purin-2-ylamino)-phenyl]-methanesulfonamide]
144 to 147 °C | CS(=O)(=O)Nc1cccc(Nc2nc(NCc3cccnc3)c3nc[nH]c3n2)c1 [Example 15, N-(3-{6-[(Pyridin-3-ylmethyl)-amino]-9H-purin-2-ylamino}-phenyl)-methanesulfonamide]
215 to 218 °C | CC(C)(CO)Nc1nc(Nc2cccc(NS(C)(=O)=O)c2)nc2[nH]cnc12 [Example 16, N-{3-[6-(2-Hydroxy-1,1-dimethyl-ethylamino)-9H-purin-2-ylamino]-phenyl}-methanesulfonamide]
163 to 166 °C | CS(=O)(=O)Nc1cccc(Nc2nc(NCCO)c3nc[nH]c3n2)c1 [Example 17, N-{3-[6-(2-Hydroxy-ethylamino)-9H-purin-2-ylamino]-phenyl}-methanesulfonamide]
148 to 151 °C | CN1CCN(c2nc(Nc3cccc(NS(C)(=O)=O)c3)nc3[nH]cnc23)CC1 [Example 18, N-{3-[6-(4-Methyl-piperazin-1-yl)-9H-purin-2-ylamino]-phenyl}-methanesulfonamide]
138 to 142 °C | CN(C)c1ccc(CNc2nc(Nc3cccc(NS(C)(=O)=O)c3)nc3[nH]cnc23)cc1 [Example 20, N-{3-[6-(4-Dimethylamino-benzylamino)-9H-purin-2-ylamino]-phenyl}-methanesulfonamide]
147 to 150 °C | CS(=O)(=O)Nc1cccc(Nc2nc(NCC3CCCCN3)c3nc[nH]c3n2)c1 (centres unmarked) [Example 21, N-(3-{6-[(Piperidin-2-ylmethyl)-amino]-9H-purin-2-ylamino}-phenyl)-methanesulfonamide]
233 to 237 °C | CS(=O)(=O)Nc1cccc(Nc2nc(NCCN3CCOCC3)c3nc[nH]c3n2)c1 [Example 22, N-{3-[6-(2-Morpholin-4-yl-ethylamino)-9H-purin-2-ylamino]-phenyl}-methanesulfonamide]
137 to 140 °C | CS(=O)(=O)Nc1cccc(Nc2nc(OC3CCCC3)c3nc[nH]c3n2)c1 [Example 23, N-[3-(6-Cyclopentyloxy-9H-purin-2-ylamino)-phenyl]-methanesulfonamide]
169 to 172 °C | CS(=O)(=O)Nc1cccc(Nc2nc(OCC3CCCCC3)c3nc[nH]c3n2)c1 [Example 24, N-[3-(6-Cyclohexylmethoxy-9H-purin-2-ylamino)-phenyl]-methanesulfonamide]
255 to 257 °C | CS(=O)(=O)Nc1cccc(Nc2nc(OC3CCOC3)c3nc[nH]c3n2)c1 (centres unmarked) [Example 25, N-{3-[6-(Tetrahydro-furan-3-yloxy)-9H-purin-2-ylamino]-phenyl}-methanesulfonamide]
243 to 246 °C | O=S(=O)(Nc1cccc(Nc2nc(NC3CCCC3)c3nc[nH]c3n2)c1)C(F)(F)F [Example 27, N-[3-(6-Cyclopentylamino-9H-purin-2-ylamino)-phenyl]-C,C,C-trifluoro-methanesulfonamide]
148 to 151 °C | CN(C)c1cccc(CNc2nc(Nc3cccc(NS(C)(=O)=O)c3)nc3[nH]cnc23)c1 [Example 31, N-{3-[6-(3-Dimethylamino-benzylamino)-9H-purin-2-ylamino]-phenyl}-methanesulfonamide]
201 to 204 °C | COCCOc1nc(Nc2cccc(NS(C)(=O)=O)c2)nc2[nH]cnc12 [Example 32, N-{3-[6-(2-Methoxy-ethoxy)-9H-purin-2-ylamino]-phenyl}-methanesulfonamide]
144 to 147 °C | CC(C)N(C)c1nc(Nc2cccc(NS(C)(=O)=O)c2)nc2[nH]cnc12 [Example 36, N-{3-[6-(Isopropyl-methyl-amino)-9H-purin-2-ylamino]-phenyl}-methanesulfonamide]
234 to 239 °C | CS(=O)(=O)Nc1cccc(Nc2nc(NC3CCCC3)c3nc[nH]c3n2)c1 [Example 37, N-[3-(6-Cyclopentylamino-9H-purin-2-ylamino)-phenyl]-methanesulfonamide]
